Literature values as cited in US20240390277A1, “LIQUID FORMULATIONS OF TRAZODONE” (Rubicon Research Private Limited, priority 2023, published 2024).

Conditions: humans

O=c1n(CCCN2CCN(c3cccc(Cl)c3)CC2)nc2ccccn12 [Trazodone]
Volume of distribution: 1.2 L/kg
